Results as given in ChEMBL document CHEMBL1132501, “Synthesis and anti-Helicobacter pylori activity of FR182024, a new cephem derivative” (1999).

Legend:
[1] = The compound was tested against Penicillinase (TEM) and its stability towards beta-lactamase relative to cephaloridine was evaluated; type: functional
[2] = The compound was tested against penicillinase (TEM) and its stability towards beta-lactamase relative to cephaloridine was evaluated
[3] = tested on: Beta-lactamase (Bacteroides fragilis); experiment: The compound was tested against Bacteroides fragilis FP784 its stability towards beta-lactamase relative to cephaloridine was evaluated
[4] = The compound was tested against penicillinase (TEM) and its stability towards beta-lactamase was evaluated

Row | Vmax [1] | Vmax / Km [1] | Vmax [2] | Vmax / Km [2] | Vmax / Km [3] | Km [4] | Compound
1 | 1 | 1 |  |  |  |  | O=C(Cc1cccs1)N[C@@H]1C(=O)N2C(C(=O)[O-])=C(C[n+]3ccccc3)CS[C@H]12
2 |  |  | 3.61 | 6.33 | 1.98 | 47.4 µg/mL | Cc1nnc(SC2=C(C(=O)O)N3C(=O)[C@@H](NC(=O)Cc4ccccc4)[C@H]3SC2)s1
